# pIC50: −log10 of the molar value. Structures can show the parent of a compound that is named as a salt.
# Test system: arteria saphena rings
# Assay: Vasorelaxant effect in vitro (phenylephrine-contracted arteria saphena rings)
# Assay type: cell-based, Rabbits
# Conditions: Oryctolagus cuniculus; rabbit arteria saphena rings, contractions generated by phenylephrine, 0.1% DMSO; read-out: IC50, concentration necessary to reduce the height of the contraction of the control value by 50%
# Procedure: Vasorelaxant Effect In Vitro
# Rabbits are anesthetized or killed by intravenous injection of thiopental sodium (about 50 mg/kg) and exsanguinated. The arteria saphena is removed and divided into rings 3 mm wide. The individual rings are in each case mounted on a pair of hooks of triangular shape, open at the end and made of special wire (Remanium®) having a diameter of 0.3 mm. Under pretension, each ring is introduced into a 5 ml organ bath containing carbogen-gassed Krebs-Henseleit solution at 37° C. with the following composition (mM): NaCl: 119; KCl: 4.8; CaCl2×2H2O: 1; MgSO4×7H2O: 1.4; KH2PO4: 1.2; NaHCO3: 25; glucose: 10; bovine serum albumin: 0.001%. The force of contraction is detected with Statham UC2 cells, amplified and digitized via A/D converters (DAS-1802 HC, Keithley Instruments, Munich) and recorded in parallel on chart recorders. Contractions are generated by adding phenylephrine.
# After several (generally 4) control cycles, the substance to be investigated is added in each further run in increasing dosage in each case, and the height of the contraction reached under the influence of the test substance is compared with the height of the contraction reached in the last preceding run. The concentration necessary to reduce the height of the control value by 50% (IC50) is calculated from this. The standard application volume is 5 μl. The DMSO content in the bath solution corresponds to 0.1%.
row,SMILES,pIC50
1,O=C(O)CCCCN(Cc1ccc(C(=O)O)cc1)Cc1cccc(Oc2ccc(-c3ccc(C(F)(F)F)cc3)cc2)c1 [Example 2],7.26
2,"O=C(O)CCCCN(Cc1ccc(C(=O)O)cc1)Cc1cccc(Oc2ccc(C3CCCCC3)cc2)c1 [Example 3, 4-({(4-Carboxybutyl)[3-(4-cyclohexylphenoxy)benzyl]amino}methyl)-benzoic acid hydrochloride]",7.44

# Results, then the molecule that gave them:
row,pIC50,SMILES
1,10.39,"O=C(O)CCCCN(CCc1ccccc1OC(F)(F)c1ccc(-c2ccc(C(F)(F)F)cc2)cc1)Cc1ccc(C(=O)O)cc1 [Example 6, 4-({(4-Carboxybutyl)[2-(2-{difluoro[4′-(trifluoromethyl)-1,1′-biphenyl-4-yl]methoxy}phenyl)ethyl]amino}methyl)benzoic acid]"
2,9.40,"O=C(O)CCCCN(CCc1cc(F)ccc1COc1ccc(C2CCCCC2)cc1)Cc1ccc(C(=O)O)cc1 [Example 12, 4-{[(4-Carboxybutyl)(2-{2-[(4-cyclohexylphenoxy)methyl]-5-fluorophenyl}ethyl)amino]methyl}benzoic acid]"
3,9.59,O=C(O)CCCCN(CCc1cc(F)ccc1COc1ccc(-c2ccc(C(F)(F)F)cc2)cc1)Cc1ccc(C(=O)O)cc1 [Example 17]

# Test system: not given
# Assay: not given
# Conditions: not given
row,melting point,SMILES
1,> 250 °C,"O=C(O)CCCCN(CCc1cc(F)ccc1COc1ccc(C2CCCCC2)cc1)Cc1ccc(C(=O)O)cc1 [Example 12, 4-{[(4-Carboxybutyl)(2-{2-[(4-cyclohexylphenoxy)methyl]-5-fluorophenyl}ethyl)amino]methyl}benzoic acid]"

# — patent US6939990B2, “Derivatives of dicarboxylic acid having pharmaceutical properties” (Bayer Aktiengesellschaft, priority 2001, dated 2005)
